According to paper doi:10.1101/2025.02.12.637899v1 (biorxiv, 2025):
Where two headings read alike, the source gives them in different places. One block for each molecule: values may come before it.

Columns and labels:
[1] = target: T1, hP2X7R (full-length wild-type human P2X7 receptor) (Homo sapiens, UniProt Q99572); experiment: bio-layer interferometry, kinetic […] fit; type: binding
T1 construct: gene P2RX7; full-length wild-type homotrimer; structures: C-terminal GFP, 3C site and His tag, digested with HRV 3C, from HEK293 / HEK293 GNTI- cells; BLI: biotinylated receptor; TEVC: untagged in Xenopus oocytes; calcium influx: 1321N1 cells; ethidium uptake: HEK293 cells
T1 sequence (Q99572 1-595): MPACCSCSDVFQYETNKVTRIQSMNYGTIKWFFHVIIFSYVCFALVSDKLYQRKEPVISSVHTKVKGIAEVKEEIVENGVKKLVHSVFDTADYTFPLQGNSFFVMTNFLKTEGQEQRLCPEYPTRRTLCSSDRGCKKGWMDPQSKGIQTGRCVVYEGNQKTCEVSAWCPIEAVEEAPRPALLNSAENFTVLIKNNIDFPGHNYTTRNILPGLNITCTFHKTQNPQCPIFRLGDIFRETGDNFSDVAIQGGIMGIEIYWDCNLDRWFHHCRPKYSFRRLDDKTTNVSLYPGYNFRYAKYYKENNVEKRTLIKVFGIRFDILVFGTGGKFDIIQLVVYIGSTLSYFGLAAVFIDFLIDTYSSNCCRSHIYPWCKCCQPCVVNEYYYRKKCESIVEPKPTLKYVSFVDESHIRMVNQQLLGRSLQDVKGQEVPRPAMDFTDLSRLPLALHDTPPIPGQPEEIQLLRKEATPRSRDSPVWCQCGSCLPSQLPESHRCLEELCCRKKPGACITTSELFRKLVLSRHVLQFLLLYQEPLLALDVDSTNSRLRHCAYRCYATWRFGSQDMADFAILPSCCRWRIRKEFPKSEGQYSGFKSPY

[2] = target: T1, hP2X7R (full-length wild-type human P2X7 receptor); experiment: two-electrode voltage clamp, Xenopus oocytes; type: cell-based
[3] = target: T2, mP2X7R (full-length wild-type mouse P2X7 receptor) (Mus musculus, UniProt Q9Z1M0); experiment: two-electrode voltage clamp, Xenopus oocytes; type: cell-based
T2 construct: gene P2rx7; full-length wild-type homotrimer; untagged in Xenopus oocytes for TEVC
T2 sequence (Q9Z1M0 1-595): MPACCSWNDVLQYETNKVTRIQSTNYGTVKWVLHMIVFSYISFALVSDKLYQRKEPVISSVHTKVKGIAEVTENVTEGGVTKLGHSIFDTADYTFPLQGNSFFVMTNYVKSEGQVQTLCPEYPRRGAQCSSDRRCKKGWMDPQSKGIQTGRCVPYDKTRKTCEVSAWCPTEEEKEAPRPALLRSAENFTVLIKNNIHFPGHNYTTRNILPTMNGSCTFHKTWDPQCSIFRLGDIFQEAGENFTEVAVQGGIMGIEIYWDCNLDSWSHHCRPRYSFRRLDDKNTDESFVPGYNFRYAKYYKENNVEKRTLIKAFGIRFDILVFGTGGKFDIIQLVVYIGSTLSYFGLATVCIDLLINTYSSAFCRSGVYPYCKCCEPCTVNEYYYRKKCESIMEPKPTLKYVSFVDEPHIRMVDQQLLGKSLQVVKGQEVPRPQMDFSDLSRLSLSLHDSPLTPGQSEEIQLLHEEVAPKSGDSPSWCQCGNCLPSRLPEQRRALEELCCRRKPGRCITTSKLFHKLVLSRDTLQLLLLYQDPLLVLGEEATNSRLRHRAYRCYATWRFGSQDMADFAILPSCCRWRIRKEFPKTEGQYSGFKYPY

[4] = target: T3, rP2X7R (full-length wild-type rat P2X7 receptor) (Rattus norvegicus, UniProt Q64663); experiment: two-electrode voltage clamp, Xenopus oocytes; type: cell-based
T3 construct: gene P2rx7; full-length wild-type homotrimer; untagged in Xenopus oocytes for TEVC
T3 sequence (Q64663 1-595): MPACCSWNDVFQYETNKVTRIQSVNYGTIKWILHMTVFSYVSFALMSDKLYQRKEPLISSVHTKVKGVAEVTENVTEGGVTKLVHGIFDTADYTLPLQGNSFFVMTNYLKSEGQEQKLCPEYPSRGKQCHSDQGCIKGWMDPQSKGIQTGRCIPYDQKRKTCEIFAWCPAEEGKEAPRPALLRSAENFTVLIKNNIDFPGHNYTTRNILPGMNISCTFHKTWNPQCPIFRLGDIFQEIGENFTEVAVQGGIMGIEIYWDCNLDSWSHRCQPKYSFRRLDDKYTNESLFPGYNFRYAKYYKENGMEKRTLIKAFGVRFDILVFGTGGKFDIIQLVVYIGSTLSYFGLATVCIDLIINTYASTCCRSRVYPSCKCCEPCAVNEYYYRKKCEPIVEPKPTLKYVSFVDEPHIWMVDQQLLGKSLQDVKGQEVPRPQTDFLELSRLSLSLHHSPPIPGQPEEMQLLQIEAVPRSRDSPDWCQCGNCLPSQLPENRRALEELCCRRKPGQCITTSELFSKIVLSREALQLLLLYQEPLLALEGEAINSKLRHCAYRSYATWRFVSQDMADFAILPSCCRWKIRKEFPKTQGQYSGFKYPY

[5] = target: T4, hP2X4R (human P2X4 receptor) (Homo sapiens, UniProt Q99571); experiment: calcium influx (Fluo-4), […]1 cells; type: cell-based
T4 construct: gene P2RX4; stably expressed in 1321N1 astrocytoma cells by retroviral system
T4 sequence (Q99571 1-388): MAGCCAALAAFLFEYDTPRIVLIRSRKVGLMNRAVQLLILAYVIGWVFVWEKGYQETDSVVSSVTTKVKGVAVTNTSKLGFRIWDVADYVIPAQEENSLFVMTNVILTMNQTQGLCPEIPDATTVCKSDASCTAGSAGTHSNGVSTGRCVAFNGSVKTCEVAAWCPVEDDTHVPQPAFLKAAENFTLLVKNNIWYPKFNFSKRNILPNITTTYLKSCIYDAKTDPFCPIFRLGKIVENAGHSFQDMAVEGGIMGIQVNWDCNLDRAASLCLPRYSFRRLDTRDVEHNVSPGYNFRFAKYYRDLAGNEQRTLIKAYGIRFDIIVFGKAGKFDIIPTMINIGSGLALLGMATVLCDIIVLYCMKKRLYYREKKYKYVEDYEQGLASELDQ

[6] = target: T3, rP2X7R (full-length wild-type rat P2X7 receptor); experiment: calcium influx (Fluo-4), […]1 cells; type: cell-based
[7] = target: T5, hP2X2R (human P2X2 receptor) (Homo sapiens, UniProt Q9UBL9); experiment: calcium influx (Fluo-4), […]1 cells; type: cell-based
T5 construct: gene P2RX2; stably expressed in 1321N1 astrocytoma cells by retroviral system
T5 sequence (Q9UBL9 1-471): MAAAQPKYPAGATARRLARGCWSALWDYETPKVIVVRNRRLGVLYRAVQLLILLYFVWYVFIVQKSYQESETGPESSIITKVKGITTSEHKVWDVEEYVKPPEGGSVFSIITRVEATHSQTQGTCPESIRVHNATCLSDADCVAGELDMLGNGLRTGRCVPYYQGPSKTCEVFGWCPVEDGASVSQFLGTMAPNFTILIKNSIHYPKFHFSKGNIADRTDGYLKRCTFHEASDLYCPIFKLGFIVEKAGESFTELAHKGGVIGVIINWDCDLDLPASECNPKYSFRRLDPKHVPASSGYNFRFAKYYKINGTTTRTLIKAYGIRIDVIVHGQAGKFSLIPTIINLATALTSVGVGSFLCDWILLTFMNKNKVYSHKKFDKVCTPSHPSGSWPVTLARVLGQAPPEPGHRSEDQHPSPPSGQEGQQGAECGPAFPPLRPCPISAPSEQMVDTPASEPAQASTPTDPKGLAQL

[8] = target: T6, hP2X3R (human P2X3 receptor, S15V mutant) (Homo sapiens, UniProt P56373, S15V); experiment: calcium influx (Calcium […]), […]1 cells; type: cell-based
T6 construct: gene P2RX3; S15V mutant to prevent fast desensitization; stably expressed in 1321N1 astrocytoma cells by retroviral system
T6 sequence (P56373 1-397 S15V): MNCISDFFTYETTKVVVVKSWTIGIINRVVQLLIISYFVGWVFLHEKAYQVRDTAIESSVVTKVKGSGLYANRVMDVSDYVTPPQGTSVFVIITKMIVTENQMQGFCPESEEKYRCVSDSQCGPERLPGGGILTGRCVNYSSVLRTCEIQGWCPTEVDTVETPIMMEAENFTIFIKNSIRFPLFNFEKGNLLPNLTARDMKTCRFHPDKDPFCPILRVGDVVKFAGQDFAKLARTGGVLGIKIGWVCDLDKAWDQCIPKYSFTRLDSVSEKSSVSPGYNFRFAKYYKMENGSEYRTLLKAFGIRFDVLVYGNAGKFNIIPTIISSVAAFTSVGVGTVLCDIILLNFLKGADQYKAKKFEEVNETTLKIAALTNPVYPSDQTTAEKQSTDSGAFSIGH

[9] = target: T1, hP2X7R (full-length wild-type human P2X7 receptor); experiment: calcium influx (Fluo-4), […]1 cells; type: cell-based; details: agonist BzATP at EC80; allosteric antagonist, classical allosteric site; pH 7.4
[10] = target: T2, mP2X7R (full-length wild-type mouse P2X7 receptor); experiment: calcium influx (Fluo-4), […]1 cells; type: cell-based
[11] = target: T1, hP2X7R (full-length wild-type human P2X7 receptor); experiment: ethidium bromide accumulation, HEK293 cells expressing hP2X7R; type: cell-based
Source text: ethidium bromide accumulation, HEK293 cells expressing hP2X7R on hP2X7R (full-length wild-type human P2X7 receptor)

Structure (SMILES): Nc1ncnc2c1ncn2[C@@H]1O[C@H](COP(=O)(O)OP(=O)(O)OP(=O)(O)O)[C@@H](O)[C@H]1O [ATP]
- Kd [1]: 650 ± 120 nM
- EC50 [2]: 89000 ± 8300 nM
- EC50 [3]: 70000 ± 17000 nM
- EC50 [4]: 34000 ± 8400 nM

Structure (SMILES): O=C(NNc1ccccc1Cl)C12CC3CC(CC(C3)C1)C2 [UB-ALT-P30]
- inhibition at 10 µM [5]: 44 ± 14%
- IC50 [6]: 120 ± 50 nM
- inhibition at 10 µM [7]: 29 ± 7%
- inhibition at 10 µM [8]: 86 ± 9%
- IC50 [9]: 18 ± 8.3 nM
- IC50 [10]: 150 ± 27 nM

Structure (SMILES): CC12CC3(C)CC(C)(C1)CC(C(=O)NNc1ccccc1Cl)(C2)C3 [UB-ALT-P37]
- IC50 [11]: > 1000 nM

Structure (SMILES): O=C(NNc1ccccc1Cl)C12C3C4C5C3C1C5C42 (stereo not drawn) [UB-ALT-P38]
- IC50 [11]: 430 ± 64 nM

Further lines, results first:

- IC50 [11]: 477 ± 170 nM
Structure (SMILES): CC12CC3CC(C)(C1)CC(C(=O)NNc1ccccc1Cl)(C3)C2 [UB-ALT-P36]

- IC50 ([6]; agonist BzATP at EC80, pH 7.4): 40.6 ± 10.4 nM
- IC50 ([10]; agonist BzATP at EC80, pH 7.4): 4.52 ± 0.72 nM
Structure (SMILES): CC12CC3CC1(C)C1(C)CC3(C(=O)NNc3ccccc3Cl)CC21C [UB-MBX-46]
